Structures can show the parent of a compound that is named as a salt.
Target: human NK1R (Homo sapiens, UniProt P25103)
Test: biochemical
Type: binding
Details: for IC50: displacement of 125I-substance P, human NK1R in COS or CHO cells
Description: To express the cloned human neurokinin-1-receotor (NK1R) transiently in COS, the cDNA for the human NK1R was cloned into the expression vector pCDM9 which was derived from pCDM8 (INVITROGEN) by inserting the ampicillin resistance gene (nucleotide 1973 to 2964 from BLUESCRIPT SK+ (trademark, […], La Jolla, Calif., U.S.A.)) into the Sac II site. Transfection of 20 ug of the plasmid DNA into 10 million COS cells was achieved by electroporation in 800 μl of transfection buffer (135 mM NaCl, 1.2 mM CaCl2, 1.2 mM MgCl2, 2.4 mM K2 HPO4, 0.6 mM KH2 PO4, 10 mM glucose, 10 mM N-2-hydroxyethyl-piperazine-N'-2-ethane sulphonic acid (HEPES) pH 7.4) at 260 V and 950 μF using the IBI GENEZAPPER (trademark IBI, New Haven, Conn., U.S.A.). The cells were incubated in 10% fetal calf serum, 2 mM glutamine, 100 U/ml penicillin-streptomycin, and 90% DMEM media (GIBCO, Grand Island, N.Y., U.S.A.) in 5% CO2 at 37° C. for three days before the binding assay.
To establish a stable cell line expressing cloned human NK1R, the cDNA was subcloned into the vector pRcCMV (INVITROGEN). Transfection of 20 ug of the plasmid DNA into CHO cells was achieved by electroporation in 800 μl of transfection buffer supplemented with 0.625 mg/ml Herring sperm DNA at 300 V and 950 μF using the IBI GENEZAPPER (IBI). The transfected cells were incubated. in CHO media [10% fetal calf serum, 100 U/ml penicillin-streptomycin, 2 mM glutamine, 1/500 hypoxanthinethymidine (ATCC), 90% IMDM media (JRH BIOSCIENCES, Lenexa, Kans., U.S.A.), 0.7 mg/ml G418 (GIBCO)] in 5% CO2 at 37° C. until colonies were visible. Each colony was separated and propagated. The cell clone with the highest number of human NK1R was selected for subsequent applications such as drug screening.
The binding assay of human NK1R expressed in either COS or CHO cells is based on the use of ^125 I-substance P (^125 I-SP, from DU PONT, Boston, Mass.) as a radioactively labeled ligand which competes with unlabeled substance P or any other ligand for binding to the human NK1R. […] The tubes were incubated at 4° C. or at room temperature for 1 hour with gentle shaking. The bound radioactivity was separated from unbound radioactivity by GF/C filter (BRANDEL, Gaithersburg, Md.) which was prewetted with 0.1% polyethylenimine. The filter was washed with 3 ml of wash buffer (50 mM Tris pH 7.5, 5 mM MnCl2, 150 mM NaCl) three times and its radioactivity was determined by gamma counter.

Chain of human NK1R (P25103 whole entry): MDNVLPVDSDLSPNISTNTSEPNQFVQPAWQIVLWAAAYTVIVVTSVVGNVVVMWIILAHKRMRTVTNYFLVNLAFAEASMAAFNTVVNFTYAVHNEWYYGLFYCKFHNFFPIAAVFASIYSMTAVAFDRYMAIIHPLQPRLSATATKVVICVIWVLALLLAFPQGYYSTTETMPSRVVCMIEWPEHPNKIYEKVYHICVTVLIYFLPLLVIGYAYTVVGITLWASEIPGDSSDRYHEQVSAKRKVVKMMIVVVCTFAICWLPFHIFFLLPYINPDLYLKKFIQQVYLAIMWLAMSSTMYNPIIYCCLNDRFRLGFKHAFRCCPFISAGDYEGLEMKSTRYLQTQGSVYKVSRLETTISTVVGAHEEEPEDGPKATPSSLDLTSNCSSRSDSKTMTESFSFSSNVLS

SMILES	IC50 [nM]	further results
COc1cccc(C(Cc2ccccc2)C(N)COCc2cc(C(F)(F)F)cc(C(F)(F)F)c2)c1 (mixture of isomers) [70 (mixture of diastereomers), 2-Amino-1-((3,5-bis(trifluoromethyl)phenyl)methyloxy)-3-(3-methoxyphenyl)-4-phenylbutane]	160	
CC(NC(COCc1cc(C(F)(F)F)cc(C(F)(F)F)c1)C(c1ccccc1)c1ccccc1)C(N)=O (single isomer, unassigned) [41 (diastereomer A), 1-((3',5'-Bis(trifluoromethyl)phenyl)methyloxy)-2-((1-(carboxamido)ethyl)ammonium)-3,3-diphenylpropane oxalate salt]	0.4	
CC(NC(COCc1cc(C(F)(F)F)cc(C(F)(F)F)c1)C(c1ccccc1)c1ccccc1)C(N)=O (single isomer, unassigned) [41 (diastereomer B), 1-((3',5'-Bis(trifluoromethyl)phenyl)methyloxy)-2-((1-(carboxamido)ethyl)ammonium)-3,3-diphenylpropane oxalate salt]	0.5	
CC(N[C@H](COCc1cc(C(F)(F)F)cc(C(F)(F)F)c1)C(c1ccccc1)c1ccccc1)C(N)=O (single isomer, unassigned) [58 (diastereomer A)]	0.4	
CC(N[C@H](COCc1cc(C(F)(F)F)cc(C(F)(F)F)c1)C(c1ccccc1)c1ccccc1)C(N)=O (single isomer, unassigned) [58 (diastereomer B)]	0.5	
CC(c1cccc(Cl)c1)C(N)COCc1cc(C(F)(F)F)cc(C(F)(F)F)c1 (single isomer, unassigned) [71 (diastereomer B), 2-Amino-1-((3,5-bis(trifluoromethyl)phenyl)methyloxy)-3-(3-chlorophenyl)-butane]		inhibition at 0.3 µM (1 h, @ 0.3 μM, read-out: Substance P antagonism (%)): 42%
Cc1cc(C)cc(COCC(N)C(c2ccccc2)c2ccccc2)c1 (stereo not drawn) [Example 1, 2-Ammoninm-1-((3,5-dimethylphenyl)methyloxy)-3,3-diphenylpronane tosylate salt]	5.5	
Cc1cc(C)cc(COCC(C(c2ccccc2)c2ccccc2)N(C)C)c1 (stereo not drawn) [Example 2, 2-Dimethylammonium-1-((3,5-dimethylphenyl)methyloxy)-3,3-diphenylpropane tosylate salt]	2.4	
COc1ccccc1CNC(=O)C(NC(=O)OC(C)(C)C)C(c1ccccc1)c1ccccc1 (stereo not drawn) [Example 3, 2-t-Butoxycarbonylamino-3,3-diphenylpropanoyl-(2-methoxyphenyl)methylamide]		inhibition at 10 µM (1 h, @ 10 μM, read-out: Substance P antagonism (%)): 77%
COc1ccccc1CNC(=O)C(N)C(c1ccccc1)c1ccccc1 (stereo not drawn) [Example 4, 2-Ammonium-3,3-diphenylpropanoyl-(2-methoxyphenyl)methylamide tosylate salt]	700	
Cc1cc(C)cc(COC(=O)C(N)C(c2ccccc2)c2ccccc2)c1 (stereo not drawn) [Example 5, (3,5-Dimethylphenyl)methyl 2-ammonium-3,3-diphenylpropanoate tosylate salt]	160	
CNC(COCc1cc(C)cc(C)c1)C(c1ccccc1)c1ccccc1 (stereo not drawn) [Example 6, 2-Methylammonium-1-((3,5-dimethylphenyl)methyloxy)-3,3-diphenylpropane oxalate salt]	10	
CCNC(COCc1cc(C)cc(C)c1)C(c1ccccc1)c1ccccc1 (stereo not drawn) [Example 7, 2-Ethylammonium-1-((3,5-dimethylphenyl)methyloxy)-3,3-diphenylpropane oxalate salt]	20	
CCCNC(COCc1cc(C)cc(C)c1)C(c1ccccc1)c1ccccc1 (stereo not drawn) [Example 8, 2-Propylammonium-1-((3,5-dimethylphenyl)methyloxy)-3,3-diphenylpropane oxalate salt]	90	
Cc1cc(C)cc(COCC(NCC2CC2)C(c2ccccc2)c2ccccc2)c1 (stereo not drawn) [Example 9, 2-Cyclopropylmethylammonium-1-((3,5-dimethylphenyl)methyloxy)-3,3-diphenylpropane tosylate salt]	100	
C=CCNC(COCc1cc(C)cc(C)c1)C(c1ccccc1)c1ccccc1 (stereo not drawn) [Example 10, 2-Allylammonium-1-((3,5-dimethylphenyl)methyloxy)-3,3-diphenylpropane oxalate salt]	70	
Cc1cc(C)cc(COCC(NCc2ccccc2)C(c2ccccc2)c2ccccc2)c1 (stereo not drawn) [Example 11, 2-Benzylammonium-1-((3,5-dimethylphenyl)methyloxy)-3,3-diphenyl propane]	320	

SMILES	IC50 [nM]	further results
Cc1cc(C)cc(COCC(C(c2ccccc2)c2ccccc2)[N+](C)(C)C)c1 (stereo not drawn) [Example 12, 1-((3,5-Dimethylphenyl)methyloxy)-3,3-diphenyl-2-(N,N,N-trimethylammonium)propane iodide salt]	19	
Cc1cc(C)cc(COCC(C(c2ccccc2)c2ccccc2)N2CCCC2)c1 (stereo not drawn) [Example 13, 3,3-Diphenyl-1-((3,5-dimethylphenyl)methyloxy)-2-(1-pyrrolidinium)propane tosylate salt]	20	
Cc1cc(C)cc(COCC(C(c2ccccc2)c2ccccc2)N2CCCCC2)c1 (stereo not drawn) [Example 14, 3,3-Diphenyl-1-((3,5-dimethylphenyl)methyloxy)-2-(piperidin-1-yl)propane hydrochloride salt]	70	
Cc1cc(C)cc(COCC(C(c2ccccc2)c2ccccc2)N2CCOCC2)c1 (stereo not drawn) [Example 15, 3,3-Diphenyl-1-((3,5-dimethylphenyl)methyloxy)-2-(4-morpholino)propane]	100	
NC(COCc1cc(Cl)cc(Cl)c1)C(c1ccccc1)c1ccccc1 (stereo not drawn) [Example 18, 2-Ammouinm-1-((3,5-dichlorophenyl)methyloxy)-3,3-diphenylpropane tosylate salt]	22	
NC(COCc1cccc(Cl)c1)C(c1ccccc1)c1ccccc1 (stereo not drawn) [Example 19, 2-Ammonium-1-((3-chlorophenyl)methyloxy)-3,3-diphenylpropane tosylate salt]	120	
COC(=O)CNC(COCc1cc(C)cc(C)c1)C(c1ccccc1)c1ccccc1 (stereo not drawn) [Example 20, 2-(N-(Carbomethoxymethyl)ammonium)-1-((3,5-dimethylphenyl)methyloxy)-3,3-diphenylpropane tosylate salt]	40	
Cc1cc(C)cc(COCC(NCC(N)=O)C(c2ccccc2)c2ccccc2)c1 (stereo not drawn) [Example 21, 2-(((Carboxamido)methyl)amino)-1-((3,5-dimethylphenyl)methyloxy)-3,3-diphenylpropane]	3	
Cc1cc(C)cc(COCC(NCCO)C(c2ccccc2)c2ccccc2)c1 (stereo not drawn) [Example 22, 2-(N-(2-Hydroxyethyl)ammonium)-1-((3,5-dimethylphenyl)methyloxy)-3,3-diphenylpropane oxalate salt]	45	
Cc1cc(C)cc(COCC(NC=O)C(c2ccccc2)c2ccccc2)c1 (stereo not drawn) [Example 23, 2-Formamido-1-((3,5-dimethylphenyl)methyloxy)-3,3-diphenylpronane]	35	
NC(COCc1cccc([N+](=O)[O-])c1)C(c1ccccc1)c1ccccc1 (stereo not drawn) [Example 24, 2-Ammonium-1-((3-nitrophenyl)methyloxy)-3,3-diphenylpropane oxalate salt]	400	
NC(COCc1ccccc1)C(c1ccccc1)c1ccccc1 (stereo not drawn) [Example 25, 2-Ammonium-1-benzyloxy-3,3-diphenylpropane oxalate salt]	600	
NC(COCc1cccc(I)c1)C(c1ccccc1)c1ccccc1 (stereo not drawn) [Example 26, oxalate salt]	140	
COc1cc(COCC(N)C(c2ccccc2)c2ccccc2)cc(OC)c1 (stereo not drawn) [Example 27, 2-Ammonium-1-((3,5-dimethoxyphenyl)methyloxy-3,3-diphenylpropane oxalate salt]	70	
Cc1ccc(C)c(COCC(N)C(c2ccccc2)c2ccccc2)c1 (stereo not drawn) [Example 28, 2-Ammonium-1-((2,5-dimethylphenyl)methyloxy)-3,3-diphenylpropane oxalate salt]	300	
N#Cc1cccc(COCC(N)C(c2ccccc2)c2ccccc2)c1 (stereo not drawn) [Example 29, 2-Ammoninm-1-((3-cyanophenyl)methyloxy)-3,3-diphenylpropane oxalate salt]		inhibition at 1 µM (1 h, @ 1 μM, read-out: Substance P antagonism (%)): 48%
